Values belong to the compound of their own block, whether it stands above or below them.
Legend:
HL60 [1] = assay: Leukemia cell growth inhibition, CellTiter-Glo (Example 1); assay type: cell-based, human; conditions: HL60 cells, 4 μM
Experimental: (§2) Various human leukemia cells were grown to the logarithmic growth phase and seeded into 24-well plates. […] Treated cells were further incubated for 72 hours and then were examined for cell proliferation. Cell proliferation was determined using the CellTiter-Glo Luminescence Cell Viability assay (Promega Corporation, Madison, Wis.) according to the manufacturer's protocol. The calculated inhibition rate was determined with the following formula: Inhibition rate (%)=(1−Luminescence of experimental group/Luminescence of control group)×100. IC50 is the calculated concentration of a compound needed to inhibit half of the maximum cell growth (equivalent to cell growth in control group) based on the corresponding dose-response curve under the described experimental conditions.

Nalm-6 [2] = assay: as above; assay type: cell-based, human; conditions: Nalm-6 cells, 4 μM
Experimental: as §2

REH = assay: as above; assay type: cell-based, human; conditions: REH cells, 4 μM
Experimental: as §2

MV4-11 cells = assay: Subcutaneous MV4-11 leukemia tumor growth in NOD/SCID mice (Example 5); assay type: in vivo; conditions: 100 mg/kg p.o. × 27 days
Experimental: Female Nonobese Diabetic/Severe Combined Immunodeficiency (NOD/SCID) mice that were 4-6 weeks old were used in the experiment. The mice were fed under specific pathogen free (SPF) conditions. Food and water were available to the mice at will. A suspension of 1×10^7 cells per mouse B-myelomonocytic leukemia MV4-11 cells (0.2 mL) in logarithmic phase were inoculated subcutaneously into the right back of the NOD/SCID nude mice.
The general conditions of the mice and the growth of the transplanted tumor were monitored. […] The control group received an intraperitoneal (IP) injection of 0.2 mL of solvent (20% DMSO, 80% of 20% w/v (2-hydroxypropyl)-β-cyclodextrin made in PBS). […] The high dosage group received an intraperitoneal injection of 50 mg/kg/day of YT30 (0.2 mL in volume) suspended in solvent (20% DMSO, 80% of 20% w/v (2-hydroxypropyl)-β-cyclodextrin made in PBS), while the low dosage group received IP injection of 25 mg/kg/day YT30 (0.2 mL in volume). Frequency of the administration was once per day and the experiment lasted 27 days after treatment started.
The body weights of the mice were recorded prior to the start of treatment and twice every week thereafter. Each mouse of every group was monitored daily for any other symptoms of side effects including change in behavior, activity or posture, areas of redness and swelling, and food and water withdrawal. Caliper measurements of the longest perpendicular tumor diameters were performed every 2 days to estimate the tumor volume; the following formula: 4π/3×(width/2)^2×(length/2) was used to calculate the three-dimensional volume of an ellipse. The tumor inhibition rate was calculated according to tumor volume: Tumor inhibition rate by size (%)=(Tumor volume of the control group−Tumor volume of the treated group)/Tumor volume of the control group×100. The mice were euthanized on the next day after the final injection and the subcutaneous tumor nodules were taken out intact and weighed. The tumor inhibition rate was calculated again according to tumor weight: Tumor inhibition rate by weight (%)=(Tumor weight of the control group−Tumor weight of the treated group)/Tumor weight of the control group×100).

K562 cells = assay: Subcutaneous K562 (CML) tumor growth in SCID mice (Example 6); assay type: in vivo; conditions: Imatinib 100 mg/kg p.o. × 16 days, SCID mice, K562 tumor
Experimental: Male Severe Combined Immunodeficiency (SCID) mice that were 4-6 weeks old were used in the experiment. The mice were fed under specific pathogen free (SPF) conditions. Food and water were available to the mice at will. A suspension of 8×10^6 chronic myelogenous leukemia K562 cells (0.2 mL) was inoculated subcutaneously into the right back of the SCID mice.
The general conditions of the mice and the growth of the transplanted tumor were monitored. […] The control group received an intraperitoneal injection (IP) of 0.2 mL solvent (20% DMSO, 80% of 20% w/v (2-hydroxypropyl)-β-cyclodextrin made in PBS). […] The YT30 treated groups received either intraperitoneal injection of 50 mg/kg/day of YT30 (0.2 mL in volume) suspended in solvent (20% DMSO, 80% of 20% w/v (2-hydroxypropyl)-β-cyclodextrin made in PBS) or oral gavage of 90 mg/kg/day YT30 in solvent (Cremophor RH40:TW80:PEG400 (2:1:1)). Frequency of the administration was once per day and the experiment lasted 16 days after initiation of the treatment.
The body weights of the mice were recorded prior to the start of treatment and twice every week thereafter. Each mouse of every group was monitored daily for any other symptoms of side effects including change in behavior, activity or posture, areas of redness and swelling, and food and water withdrawal. Caliper measurements of the longest perpendicular tumor diameters were performed every 2 days to estimate the tumor volume; the following formula: 4π/3×(width/2)^2×(length/2) was used to calculate the three-dimensional volume of an ellipse. The tumor inhibition rate was calculated according to tumor volume: Tumor inhibition rate by size (%)=(Tumor volume of the control group−Tumor volume of the treated group)/Tumor volume of the control group×100. The SCID mice were euthanized 2 hours after the final injection and the subcutaneous tumor nodules were taken out intact and weighed. The tumor inhibition rate was calculated again according to tumor weight: Tumor inhibition rate by weight (%)=(Tumor weight of the control group−Tumor weight of the treated group)/Tumor weight of the control group×100.

Nalm-6 [3] = assay: cells; conditions: Homo sapiens, NALM-6, 72 h, read-out: 72 hr growth inhibition (%)
Experimental: as §2
Growth inhibition experiments were performed as previously described.

786-0 = assay: Cancer cell line growth inhibition, CellTiter-Glo (Example 3); assay type: cell-based; conditions: Homo sapiens, Renal, 72 hours, read-out: growth inhibition of various human cancer cell lines
Experimental: (§1) YT30 was tested for growth inhibition against 67 human cancer cell lines derived from diverse tissues including the National Cancer Institute human cancer cell lines (NCI-60). […] Cells in different wells were treated with various concentrations of YT30, YT86, YT88, or YT128. […] Cell viabilities were determined by the CellTiter-Glo Luminescence Cell Viability assay kit (Promega Corporation, Madison, Wis.) according to manufacturer's protocol.

A498 = assay: as above; assay type: cell-based; conditions: Homo sapiens, Renal, 72 hours, read-out: growth inhibition of various human cancer cell lines
Experimental: as §1

BT-549 = assay: as above; assay type: cell-based; conditions: Homo sapiens, Breast, 72 hours, read-out: growth inhibition of various human cancer cell lines
Experimental: as §1

CCRF-CEM = assay: as above; assay type: cell-based; conditions: Homo sapiens, Leukemia, 72 hours, read-out: growth inhibition of various human cancer cell lines
Experimental: as §1

Caski = assay: as above; assay type: cell-based; conditions: Homo sapiens, Ca-Ski, Cervical, 72 hours, read-out: growth inhibition of various human cancer cell lines
Experimental: as §1

DU-145 = assay: as above; assay type: cell-based; conditions: Homo sapiens, Prostate, 72 hours, read-out: growth inhibition of various human cancer cell lines
Experimental: as §1

HL60 [4] = assay: as above; assay type: cell-based; conditions: Homo sapiens, HL-60, Leukemia, 72 hours, read-out: growth inhibition of various human cancer cell lines
Experimental: as §1

HS 578T = assay: as above; assay type: cell-based; conditions: Homo sapiens, Breast, 72 hours, read-out: growth inhibition of various human cancer cell lines
Experimental: as §1

HeLa = assay: as above; assay type: cell-based; conditions: Homo sapiens, Cervical, 72 hours, read-out: growth inhibition of various human cancer cell lines
Experimental: as §1

K562 = assay: as above; assay type: cell-based; conditions: Homo sapiens, Leukemia, 72 hours, read-out: growth inhibition of various human cancer cell lines
Experimental: as §1

MCF7 = assay: as above; assay type: cell-based; conditions: Homo sapiens, Breast, MCF-7, 72 hours, read-out: growth inhibition of various human cancer cell lines
Experimental: as §1

MDA-MB-435 = assay: as above; assay type: cell-based; conditions: Homo sapiens, Breast, 72 hours, read-out: growth inhibition of various human cancer cell lines
Experimental: as §1

MDA-MB-468 = assay: as above; assay type: cell-based; conditions: Homo sapiens, Breast, 72 hours, read-out: growth inhibition of various human cancer cell lines
Experimental: as §1

MDA-MB231 = assay: as above; assay type: cell-based; conditions: Homo sapiens; Breast, MDA-MB-231; 72 hours; read-out: growth inhibition of various human cancer cell lines
Experimental: as §1

MOLT-4 = assay: as above; assay type: cell-based; conditions: Homo sapiens, Leukemia, 72 hours, read-out: growth inhibition of various human cancer cell lines
Experimental: as §1

NCI/ADR-RES = assay: as above; assay type: cell-based; conditions: Homo sapiens, Breast, 72 hours, read-out: growth inhibition of various human cancer cell lines
Experimental: as §1

OVCAR-3 = assay: as above; assay type: cell-based; conditions: Homo sapiens, Ovarian, 72 hours, read-out: growth inhibition of various human cancer cell lines
Experimental: as §1

OVCAR-4 = assay: as above; assay type: cell-based; conditions: Homo sapiens, Ovarian, 72 hours, read-out: growth inhibition of various human cancer cell lines
Experimental: as §1

OVCAR-5 = assay: as above; assay type: cell-based; conditions: Homo sapiens, Ovarian, 72 hours, read-out: growth inhibition of various human cancer cell lines
Experimental: as §1

SF-268 = assay: as above; assay type: cell-based; conditions: Homo sapiens, CNS, 72 hours, read-out: growth inhibition of various human cancer cell lines
Experimental: as §1

SF-295 = assay: as above; assay type: cell-based; conditions: Homo sapiens, CNS, 72 hours, read-out: growth inhibition of various human cancer cell lines
Experimental: as §1

SF-539 = assay: as above; assay type: cell-based; conditions: Homo sapiens, CNS, 72 hours, read-out: growth inhibition of various human cancer cell lines
Experimental: as §1

SN12C = assay: as above; assay type: cell-based; conditions: Homo sapiens, Renal, 72 hours, read-out: growth inhibition of various human cancer cell lines
Experimental: as §1

SNB-19 = assay: as above; assay type: cell-based; conditions: Homo sapiens, CNS, 72 hours, read-out: growth inhibition of various human cancer cell lines
Experimental: as §1

SNB-75 = assay: as above; assay type: cell-based; conditions: Homo sapiens, CNS, 72 hours, read-out: growth inhibition of various human cancer cell lines
Experimental: as §1

SR = assay: as above; assay type: cell-based; conditions: Homo sapiens, Leukemia, 72 hours, read-out: growth inhibition of various human cancer cell lines
Experimental: as §1

T-47D = assay: as above; assay type: cell-based; conditions: Homo sapiens, T47D, Breast, 72 hours, read-out: growth inhibition of various human cancer cell lines
Experimental: as §1

TK-10 = assay: as above; assay type: cell-based; conditions: Homo sapiens, Renal, 72 hours, read-out: growth inhibition of various human cancer cell lines
Experimental: as §1

U251 = assay: as above; assay type: cell-based; conditions: Homo sapiens, U-251, CNS, 72 hours, read-out: growth inhibition of various human cancer cell lines
Experimental: as §1

UO-31 = assay: as above; assay type: cell-based; conditions: Homo sapiens, Renal, 72 hours, read-out: growth inhibition of various human cancer cell lines
Experimental: as §1

siHa = assay: as above; assay type: cell-based; conditions: Homo sapiens, Cervical, 72 hours, read-out: growth inhibition of various human cancer cell lines
Experimental: as §1

SMILES: Nc1ccccc1NC(=O)Cc1cccc(CC(=O)Nc2ccccc2N)c1 [YT19]
Growth inhibition (FIG. 1) (HL60 [1]): failed to inhibit cell growth
Growth inhibition (FIG. 1) (Nalm-6 [2]): failed to inhibit cell growth
Growth inhibition (FIG. 1) (REH): failed to inhibit cell growth

SMILES: Cc1ccc(NC(=O)c2ccc(CN3CCN(C)CC3)cc2)cc1Nc1nccc(-c2cccnc2)n1 [Imatinib, imatinib, reference compound]
Average body weight (g, x ± s) End point (MV4-11 cells): 22.06 ± 1.74 g
Body weight change (%) (MV4-11 cells): −1.0%
Tumor growth Inhibition by size (%) (MV4-11 cells): 52.5%
Tumor growth Inhibition by weight (%) (MV4-11 cells): 41.7%
Tumor size (mm^3) (MV4-11 cells): 1040.51 ± 422.38 mm^3
Tumor weight (g, x ± s) (MV4-11 cells): 1.29 ± 0.42 g
Body weight change (K562 cells): −3.26%
Tumor growth inhibition by size (K562 cells): 43.97%
Tumor growth inhibition by weight (K562 cells): 27.91%
Average body weight, End point (K562 cells; end point, x ± s): 18.37 ± 0.54 g
Average body weight, Initial (K562 cells; initial (before treatment), x ± s): 18.99 ± 1.23 g
Tumor size (K562 cells; x ± s): 1744.05 ± 1049.95 mm^3
inhibition at 5 µM (Nalm-6 [3]): 0%
inhibition at 10 µM (Nalm-6 [3]): 44%

IC50 (786-0): 13.8 µM
IC50 (A498): 9.54 µM
IC50 (BT-549): 10.6 µM
IC50 (CCRF-CEM): 2.65 µM
IC50 (Caski): 14.2 µM
IC50 (DU-145): 16.2 µM
IC50 (HL60 [4]): 6.97 µM
IC50 (HS 578T): 5.67 µM
IC50 (HeLa): 6.02 µM
IC50 (K562): 5.74 µM
IC50 (MCF7): 3.8 µM
IC50 (MDA-MB-435): 7.59 µM
IC50 (MDA-MB-468): 7.42 µM
IC50 (MDA-MB231): 4.28 µM
IC50 (MOLT-4): 3 µM
IC50 (NCI/ADR-RES): 14.2 µM
IC50 (OVCAR-3): 6.57 µM
IC50 (OVCAR-4): 11.9 µM
IC50 (OVCAR-5): 5.66 µM
IC50 (SF-268): 14.4 µM
IC50 (SF-295): 6.83 µM
IC50 (SF-539): 6.91 µM
IC50 (SN12C): 7.25 µM
IC50 (SNB-19): 9.61 µM
IC50 (SNB-75): 11.2 µM
IC50 (SR): 5.89 µM
IC50 (T-47D): 15 µM
IC50 (TK-10): 13.4 µM
IC50 (U251): 4.38 µM
IC50 (UO-31): 9.53 µM
IC50 (siHa): 9.07 µM
SMILES: Nc1ccccc1NC(=O)CCCCCNC(=O)c1ccc(-c2ccccc2)o1 [YT88]

From patent publication US20150374646A1, “TREATMENT OF CANCER AND OTHER CONDITIONS USING A TRANSCRIPTION FACTOR MODULATOR” (C & C BIOPHARMA, LLC, priority 2013, published 2015)
